# Measured values: US20250381110A1, “SKIN CARE COMPOSITION AND METHOD OF USING THE SAME” (THE PROCTER & GAMBLE COMPANY, priority 2024, published 2025)
# Counter-ions that a name gives are not always drawn.
# System: p62-dependent mitophagy
# Experiment: Luciferase-p62 assay (Fluc-p62 clearance) in mouse embryonic fibroblasts
# Type: cell-based
# Conditions: for Mean Luminescence: Luciferase-p62 assay, mouse embryonic fibroblasts (MEFs), compounds at 10 μM; for % Activity over baseline: percentage of Luciferase-p62 clearance relative to baseline (mean luminescence in the absence of doxycycline induction); for % Activity over baseline / % Activity relative to Rapamycin: MEFs, 10 μM; for % Activity relative to Rapamycin: percentage of activity relative to rapamycin tested in the same experiment at the same concentration
# Procedure, shortened: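 MEFs with doxycycline-inducible Fluc-p62; after induction, doxycycline removed and cells treated 48 h with compounds at 10 μM. Fluc-p62 clearance, taken as mitophagy, read by ONE-Glo+Tox luciferase with viability. Vehicle (DMSO) as negative control; activity also expressed relative to rapamycin.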
SMILES,Mean Luminescence,% Activity over baseline [%],% Activity relative to Rapamycin [%]
CCOC(=O)c1c(C)n(C)c2ccc(O)cc12 [Mecarbinate],799.96,50.56,91.10
CC(=O)O[C@]1(C(C)=O)CC[C@H]2[C@@H]3C[C@H](C)C4=CC(=O)CC[C@]4(C)[C@H]3CC[C@@]21C [Medroxyprogesterone acetate],800.04,50.56,91.09
Nc1nc(N)nc(N)n1 [Melamine],960.76,40.62,73.19
OC[C@H]1O[C@H](OCC2O[C@@H](O)[C@H](O)[C@@H](O)[C@@H]2O)[C@H](O)[C@@H](O)[C@H]1O (stereo partly drawn) [Melibiose],715.78,55.76,100.47
CN1CCN2c3ccccc3Cc3ccccc3C2C1 (stereo not drawn) [Mianserin HCl],960.23,40.66,73.25
Clc1ccc(COC(Cn2ccnc2)c2ccc(Cl)cc2Cl)c(Cl)c1 (stereo not drawn) [Miconazole Nitrate],704.35,56.47,101.75
Clc1ccc(COC(Cn2ccnc2)c2ccc(Cl)cc2Cl)c(Cl)c1 (stereo not drawn) [Miconazole],297.40,81.62,147.06
CO[C@@]12[C@H](COC(N)=O)C3=C(C(=O)C(C)=C(N)C3=O)N1C[C@@H]1N[C@@H]12 [Mitomycin C],867.02,46.42,83.63
COC(=O)c1c2c(c3ccccc3c1O)OC(C)(C)C=C2 [Mollugin],709.65,56.14,101.16
CO/N=C1\C[C@]2(C[C@@H]3C[C@@H](C/C=C(\C)C[C@@H](C)/C=C/C=C4\CO[C@@H]5[C@H](O)C(C)=C[C@@H](C(=O)O3)[C@]45O)O2)O[C@H](/C(C)=C/C(C)C)[C@H]1C [Moxidectin],476.19,70.57,127.15
C[C@@H]1CCCCCCCCCCCCC(=O)C1 [Muscone],869.43,46.27,83.36
COc1c(C)c2c(c(O)c1C/C=C(\C)CCC(=O)OCCN1CCOCC1)C(=O)OC2 [Mycophenolate Mofetil],594.21,63.28,114.01
COc1c(C)c2c(c(O)c1C/C=C(\C)CCC(=O)O)C(=O)OC2 [Mycophenolic acid],821.72,49.22,88.68
CC(=O)NCCc1c[nH]c2ccc(O)cc12 [N-Acetylserotonin],978.08,39.55,71.27
CCN1C(=O)C=CC1=O [N-Ethylmaleimide (NEM)],668.28,58.70,105.76
CO[C@]12C[C@@H](COC(=O)c3cncc(Br)c3)CN(C)[C@@H]1Cc1cn(C)c3cccc2c13 [Nicergoline],764.49,52.75,95.05
